Assay results: US11098042B2, “Inhibitors of influenza virus replication and uses thereof” (SUNSHINE LAKE PHARMA CO., LTD., priority 2017, dated 2021)

Assays:
virus H1N1 A/Weiss/43 = assay: microbe, parasite or virus in culture; assay type: cell-based; settings: Influenza A virus, 120 h; inhibition of CPE of H1N1 A/Weiss/43 in MDCK cells, 5 days, CCK-8
in vivo = settings: Sprague-Dawley (SD), rat
Description: Pharmacokinetic characteristics of the compounds of the invention in SD rat were evaluated. The compounds disclosed herein were administered in form of a saline solution containing 5% DMSO, 5% Kolliphor HS 15 and 90% Saline. For intravenous administration (iv), the animals were administered with a dose of 1 mg/kg, and blood samples (0.3 mL) were collected at the time points of 0.083, 0.25, 0.5, 1.0, 2.0, 5.0, 7.0 and 24 h after drug administration, then each blood sample was processed to separate plasma by centrifugation at 3000 rpm or 4000 rpm for 10 minutes. […] Plasma samples were collected and stored at −20° C. or −70° C. until LC/MS/MS analysis.

Compound O=C(O)[C@H]1C2CCC(CC2)[C@@H]1Nc1cc(-c2ccc(C3CC3)o2)nc(-c2n[nH]c3ncc(F)cc23)n1 [Example 15, (2S,3S)-3-((6-(5-cyclopropylfuran-2-yl)-2-(5-fluoro-1H-pyrazolo[3,4-b]pyridin-3-yl)pyrimidin-4-yl)amino)bicyclo[2.2.2]octane-2-carboxylic Acid] has an EC50 (virus H1N1 A/Weiss/43) of 0.303 nM.
For O=C(O)C1C2CCC(CC2)C1Nc1nc(-c2n[nH]c3ncc(Cl)cc23)nc(-c2ccco2)c1F (racemic) [Example 2, (+/−)-trans-3-((2-(5-chloro-1H-pyrazolo[3,4-b]pyridin-3-yl)-5-fluoro-6-(furan-2-yl)pyrimidin-4-yl)amino)bicyclo[2.2.2]octane-2-carboxylic Acid], the EC50 (virus H1N1 A/Weiss/43) was 0.054 nM, the AUC(0-inf) (in vivo; iv, 1 mg/kg) was 910 ng·h/mL and the AUC(0-t) (in vivo; iv, 1 mg/kg) was 909 ng·h/mL. It also gave a clearance (in vivo; iv, 1 mg/kg) of 18.5 mL/min/kg, an AUC(0-inf) (in vivo; po, 5 mg/kg) of 1060 ng·h/mL and an AUC(0-t) (in vivo; po, 5 mg/kg) of 1060 ng·h/mL.
With O=C(O)C1C2CCC(CC2)C1Nc1cc(C2CC2)nc(-c2n[nH]c3ncc(Cl)cc23)n1 (racemic) [Example 30, (+/−)-trans-3-((2-(5-chloro-1H-pyrazolo[3,4-b]pyridin-3-yl)-6-cyclopropylpyrimidin-4-yl)amino)bicyclo[2.2.2]octane-2-carboxylic Acid] the EC50 (virus H1N1 A/Weiss/43) was 0.35 nM.
In the case of O=C(O)C1C2CCC(CC2)C1Nc1cc(-c2ccccc2)nc(-c2n[nH]c3ncc(Cl)cc23)n1 (racemic) [Example 16, (+/−)-trans-3-((2-(5-chloro-1H-pyrazolo[3,4-b]pyridin-3-yl)-6-phenylpyrimidin-4-yl)amino)bicyclo[2.2.2]octane-2-carboxylic Acid], the EC50 (virus H1N1 A/Weiss/43) is reported as 0.14 nM.
With O=C(O)C1C2CCC(CC2)C1Nc1cc(-c2ccco2)nc(-c2n[nH]c3ncc(Cl)cc23)n1 (racemic) [Example 1, (+/−)-trans-3-((2-(5-chloro-1H-pyrazolo[3,4-b]pyridin-3-yl)-6-(furan-2-yl)pyrimidin-4-yl)amino)bicyclo[2.2.2]octane-2-carboxylic Acid] the EC50 (virus H1N1 A/Weiss/43) was 0.059 nM.
Compound O=C(O)C1C2CCC(CC2)C1Nc1cc(-c2cc3ccccc3o2)nc(-c2n[nH]c3ncc(Cl)cc23)n1 (racemic) [Example 14, (+/−)-trans-3-((6-(benzofuran-2-yl)-2-(5-chloro-1H-pyrazolo[3,4-b]pyridin-3-yl)pyrimidin-4-yl)amino)bicyclo[2.2.2]octane-2-carboxylic Acid] has an EC50 (virus H1N1 A/Weiss/43) of 0.696 nM.
O=C(O)C1C2CCC(CC2)C1Nc1cc(-c2cccs2)nc(-c2n[nH]c3ncc(Cl)cc23)n1 (racemic) [Example 29, (+/−)-trans-3-((2-(5-chloro-1H-pyrazolo[3,4-b]pyridin-3-yl)-6-(thiophen-2-yl)pyrimidin-4-yl)amino)bicyclo[2.2.2]octane-2-carboxylic Acid] showed an EC50 (virus H1N1 A/Weiss/43) of 0.203 nM.
Compound CC(C)(C)[C@@H](CC(=O)O)Nc1nc(-c2n[nH]c3ncc(Cl)cc23)nc(-c2ccco2)c1F [Example 4, (R)-3-((2-(5-chloro-1H-pyrazolo[3,4-b]pyridin-3-yl)-5-fluoro-6-(furan-2-yl)pyrimidin-4-yl)amino)-4,4-dimethylpentanoic Acid] has an EC50 (virus H1N1 A/Weiss/43) of 0.075 nM.
In the case of O=C(O)C1C2CCC(CC2)C1Nc1cc(-c2ccc3ccccc3c2)nc(-c2n[nH]c3ncc(Cl)cc23)n1 (racemic) [Example 31, (+/−)-trans-3-((2-(5-chloro-1H-pyrazolo[3,4-b]pyridin-3-yl)-6-(naphthalene-2-yl)pyrimidin-4-yl)amino)bicyclo[2.2.2]octane-2-carboxylic Acid], the EC50 (virus H1N1 A/Weiss/43) is reported as 0.513 nM.
Cn1ccc2c(NC3C4CCC(CC4)C3C(=O)O)nc(-c3n[nH]c4ncc(Cl)cc34)nc21 (racemic) [Example 3, (+/−)-trans-3-((2-(5-chloro-1H-pyrazolo[3,4-b]pyridin-3-yl)-7-methyl-7H-pyrrolo[2,3-d]pyrimidin-4-yl)amino)bicyclo[2.2.2]octane-2-carboxylic Acid] gave an EC50 (virus H1N1 A/Weiss/43) of 0.39 nM.
For CC(C)n1ccc2c(N[C@H]3C4CCC(CC4)[C@@H]3C(=O)O)nc(-c3n[nH]c4ncc(F)cc34)nc21 [Example 34, (2S,3S)-3-((2-(5-fluoro-1H-pyrazolo[3,4-b]pyridin-3-yl)-7-isopropyl-7H-pyrrolo[2,3-d]pyrimidin-4-yl)amino)bicyclo[2.2.2]octane-2-carboxylic Acid], the EC50 (virus H1N1 A/Weiss/43) was 0.227 nM.
